Measurements taken from patent US20160166638A1, “LACTOFERRIN-OSTEOPONTIN-IRON COMPLEX” (NESTEC S.A., priority 2013, published 2016).

Assay: Colour change of iron fortified strawberry-banana yoghurt after flash pasteurization (CIELAB colorimetry)
Assay type: physicochemical
Settings: colour difference vs yoghurt with no iron salts; Jogolino Strawberry/Banana yoghurt, approx. 0.8 mg iron per 100 g; flash pasteurized at 105° C. for 2 minutes
Experimental: Commercial yoghurt, Nestlé Jogolino™ Strawberry/Banana yoghurt containing 15% banana puree and 10% strawberry puree, was iron fortified by the addition of different iron containing materials to 5 kg yoghurt as reported in the table below. The amounts were chosen to provide approximately 0.8 mg iron per 100 g yoghurt. A 100 g serving of yoghurt with that level of iron would provide 15% of the recommended daily amount of iron for an infant [Official Journal of the European Union, Commission Directive 2006/125/EC].
For the lactoferrin-osteopontin-iron complex (Trial B), the powder from Example 1 was added to yoghurt at a level of 28 g per 5 kg yoghurt. The resulting yoghurt composition comprised 5.6 g powder per kg which is 4 g LF-OPN-Fe complex per kg.
The yoghurts were flash pasteurized at 105° C. for 2 minutes. Colour measurements were performed in 1×1 cm polystyrene cuvettes using an X-Rite ColorEye 7000A colorimeter. The colorimeter was set up with a D65 light source, 10 degree observer angle and with specular component included. The colour difference between the yoghurt with no iron salts and the iron fortified yoghurt was measured for each iron salt and expressed as ΔEab* using the CIELAB colour scale.

SMILES	ΔEab*
O.O=C([O-])CN(CCN(CC(=O)[O-])CC(=O)[O-])CC(=O)[O-].[Fe+3].[Na+] [NaFeEDTA × H2O]	3.11
O.O=S(=O)([O-])[O-].[Fe+2] [FeSO4 × H2O]	4.74
